Structures can show the parent of a compound that is named as a salt. Where two headings read alike, the source gives them in different places.
Key:
[1] = molecular target: Kif5b-RET fusion protein in HEK-293 cells (Homo sapiens, UniProt P07949); test: cell-based
Protocol: The cellular potency of a compound inhibiting RET kinase was determined in HEK-293 cells expressing a Kif5b-RET fusion protein. Briefly, HEK-293 cells expressing a Kif5b-RET fusion protein were plated at 50K cells/well in 96 well poly-D-Lysine coated plates the day prior to the assay. The cells were incubated for 1 hour with test compound in DMEM (Dulbecco's Modified Eagle Medium) at a final DMSO concentration of 0.5%. […] After 1 hour the media was removed, the cells were fixed with 3.8% formaldehyde for 20 min, washed with PBS, and permeabilized for 10 min with 100% methanol. […] All antibodies were diluted in LI-COR Block containing 0.05% Tween. The plates were washed with PBS-0.05% Tween20, 100 μL PBS was added to each well, and the plates were read on a LI-COR Aerius fluorescent plate reader. The phospho-RET signal was normalized to the GAPDH signal. […] The IC50 value is the point where the curve crosses 50 POC.

[2] = molecular target: N-terminal GST tagged recombinant human RET cytoplasmic domain (aa 658-end), wild type RET kinase (Homo sapiens (Human), UniProt P07949); test: RET Enzyme Assay (HTRF KinEASE-TK), wild type RET; type: biochemical
Chain of N-terminal GST tagged recombinant human RET cytoplasmic domain (aa 658-end), wild type RET kinase (P07949 658-1114): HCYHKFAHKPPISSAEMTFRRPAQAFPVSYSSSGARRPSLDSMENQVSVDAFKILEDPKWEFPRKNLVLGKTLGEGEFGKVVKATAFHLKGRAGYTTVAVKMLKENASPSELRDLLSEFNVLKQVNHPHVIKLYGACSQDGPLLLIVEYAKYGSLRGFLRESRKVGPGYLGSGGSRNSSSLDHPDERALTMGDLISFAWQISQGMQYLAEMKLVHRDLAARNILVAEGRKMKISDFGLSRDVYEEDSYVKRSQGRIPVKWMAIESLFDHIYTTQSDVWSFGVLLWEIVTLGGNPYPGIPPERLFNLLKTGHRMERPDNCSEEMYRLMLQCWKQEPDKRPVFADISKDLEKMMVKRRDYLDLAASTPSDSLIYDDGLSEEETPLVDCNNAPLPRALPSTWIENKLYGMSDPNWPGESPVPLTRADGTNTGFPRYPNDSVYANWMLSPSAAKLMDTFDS

[3] = HEK-293 cells expressing Kif5b-RET, read-out: KIF5B-RET pTYR1062 Cell IC50
[4] = HEK-293 cells expressing Kif5b-RET, phospho-RET(Tyr1062), read-out: KIF5B-RET pTYR1062 Cell IC50

Chain of Kif5b-RET fusion protein in HEK-293 cells (P07949 29-1114 limits assumed): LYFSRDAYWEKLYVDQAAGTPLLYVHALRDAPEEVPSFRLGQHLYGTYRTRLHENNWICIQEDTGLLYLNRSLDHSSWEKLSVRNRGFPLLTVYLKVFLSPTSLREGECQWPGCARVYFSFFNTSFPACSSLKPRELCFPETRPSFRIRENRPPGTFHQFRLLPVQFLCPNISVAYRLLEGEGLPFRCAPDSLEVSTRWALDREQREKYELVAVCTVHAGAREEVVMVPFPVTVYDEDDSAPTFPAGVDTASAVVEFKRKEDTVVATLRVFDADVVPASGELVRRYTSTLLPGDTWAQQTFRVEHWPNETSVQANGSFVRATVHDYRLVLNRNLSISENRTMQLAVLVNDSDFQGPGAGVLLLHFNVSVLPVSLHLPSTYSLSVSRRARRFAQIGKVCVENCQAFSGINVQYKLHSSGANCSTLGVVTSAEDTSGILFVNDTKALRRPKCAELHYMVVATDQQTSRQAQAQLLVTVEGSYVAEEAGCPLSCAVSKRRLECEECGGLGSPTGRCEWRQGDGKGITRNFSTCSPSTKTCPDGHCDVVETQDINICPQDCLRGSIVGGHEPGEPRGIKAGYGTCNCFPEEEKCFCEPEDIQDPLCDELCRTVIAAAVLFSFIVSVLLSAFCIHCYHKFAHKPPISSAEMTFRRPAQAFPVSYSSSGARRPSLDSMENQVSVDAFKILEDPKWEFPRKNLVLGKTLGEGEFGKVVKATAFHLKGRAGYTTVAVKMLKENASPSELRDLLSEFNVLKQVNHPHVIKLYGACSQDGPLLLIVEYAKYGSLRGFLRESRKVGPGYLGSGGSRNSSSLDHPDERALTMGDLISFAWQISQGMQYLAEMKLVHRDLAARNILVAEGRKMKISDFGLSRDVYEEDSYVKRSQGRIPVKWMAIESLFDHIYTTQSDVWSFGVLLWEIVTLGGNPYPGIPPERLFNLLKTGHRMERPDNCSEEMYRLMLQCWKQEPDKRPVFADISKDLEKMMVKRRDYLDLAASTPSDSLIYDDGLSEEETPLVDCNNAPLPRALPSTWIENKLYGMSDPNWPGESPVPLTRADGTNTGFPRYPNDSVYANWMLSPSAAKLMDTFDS

## COCCCN1CCN(c2ccc(-c3cc(-c4cnn(C)c4)cn4ncc(C#N)c34)cn2)CC1 [Example 405, 4-(6-(4-(3-methoxypropyl)piperazin-1-yl)pyridin-3-yl)-6-(1-methyl-1H-pyrazol-4-yl)pyrazolo[1,5-a]pyridine-3-carbonitrile]
[1]; [3]
  IC50: 32.5 nM
[2]; wild type RET, 1 mM ATP
  IC50: 30.8 nM

## Cc1cc(-c2cc(-c3cnn(C)c3)cn3ncc(C#N)c23)cnc1N1CCNCC1 [Example 276, 6-(1-methyl-1H-pyrazol-4-yl)-4-(5-methyl-6-(piperazin-1-yl)pyridin-3-yl)pyrazolo[1,5-a]pyridine-3-carbonitrile dihydrochloride]
[2]; wild type RET, 1 mM ATP
  IC50: 395 nM

## Cc1cnn2cc(-c3cnn(C)c3)cc(-c3ccc(N4CCN(Cc5ccccn5)CC4)nc3)c12 [Example 654, 3-methyl-6-(1-methyl-1H-pyrazol-4-yl)-4-(6-(4-(pyridine-2-ylmethyl)piperazin-1-yl)pyridin-3-yl)pyrazolo[1,5-a]pyridine]
[1]; [3]
  IC50: 164 nM
[2]; wild type RET, 1 mM ATP
  IC50: 70.6 nM

## Cc1cnn2cc(-c3cnn(C)c3)cc(-c3ccc(N4CCNCC4)nc3)c12 [Example 651, 3-methyl-6-(1-methyl-1H-pyrazol-4-yl)-4-(6-(piperazin-1-yl)pyridin-3-yl)pyrazolo[1,5-a]pyridine]
[2]; wild type RET, 1 mM ATP
  IC50: 208 nM

## CC(C)NC(=O)[C@@H]1CCCN(c2ccc(-c3cc(-c4cnn(C)c4)cn4ncc(C#N)c34)cn2)C1 [Example 229, (R)-1-(5-(3-cyano-6-(1-methyl-1H-pyrazol-4-yl)pyrazolo[1,5-a]pyridin-4-yl)pyridin-2-yl)-N-isopropylpiperidine-3-carboxamide]
[2]; wild type RET, 1 mM ATP
  IC50: 334 nM

## Cn1cc(-c2cc(-c3ccc(N4CCN(C(=O)CCS(C)(=O)=O)CC4)nc3)c3c(C#N)cnn3c2)cn1 [Example 3, 6-(1-methyl-1H-pyrazol-4-yl)-4-(6-(4-(3-(methylsulfonyl)propanoyl)piperazin-1-yl)pyridin-3-yl)pyrazolo[1,5-a]pyridine-3-carbonitrile]
[1]; [4]
  IC50: 119 nM
[2]; wild type RET, 1 mM ATP
  IC50: 11.9 nM

## Cn1cc(-c2cc(-c3ccc(N4CCN(C(=O)OC(C)(C)C)CC4)nc3)c3c(Cl)cnn3c2)cn1 [Example 325, tert-butyl 4-(5-(3-chloro-6-(1-methyl-1H-pyrazol-4-yl)pyrazolo[1,5-a]pyridin-4-yl)pyridin-2-yl)piperazine-1-carboxylate]
[1]; [4]
  IC50: 742 nM
[2]; wild type RET, 1 mM ATP
  IC50: 372 nM

## Cn1cc(-c2cc(-c3ccc(N4CCC(S(=O)(=O)O)CC4)nc3)c3c(C#N)cnn3c2)cn1 [Example 568, 1-(5-(3-cyano-6-(1-methyl-1H-pyrazol-4-yl)pyrazolo[1,5-a]pyridin-4-yl)pyridin-2-yl)piperidine-4-sulfonic acid]
[1]; [3]
  IC50: 5000 nM
[2]; wild type RET, 1 mM ATP
  IC50: 6.1 nM

## COc1ccc(CN2CCN(c3ccc(-c4cc(-c5cnn(C(C)C)c5)cn5ncc(C#N)c45)cn3)CC2)cn1 [Example 697, 6-(1-isopropyl-1H-pyrazol-4-yl)-4-(6-(4-((6-methoxypyridin-3-yl)methyl)piperazin-1-yl)pyridin-3-yl)pyrazolo[1,5-a]pyridine-3-carbonitrile]
[1]
  IC50: 13.8 nM
[2]; wild type RET, 1 mM ATP
  IC50: 28.1 nM

## Cc1cc(-c2cc(-c3cnn(C)c3)cn3ncc(C#N)c23)cnc1N1CCN(C(=O)CC(C)(C)C)CC1 [Example 279, 4-(6-(4-(3,3-dimethylbutanoyl)piperazin-1-yl)-5-methylpyridin-3-yl)-6-(1-methyl-1H-pyrazol-4-yl)pyrazolo[1,5-a]pyridine-3-carbonitrile]
[2]; wild type RET, 1 mM ATP
  IC50: 318 nM

## COc1ccc(CN2CCN(c3ccc(-c4cc(-c5cnn(C(F)F)c5)cn5ncc(C#N)c45)cn3)CC2)cn1 [Example 696, 6-(1-(difluoromethyl)-1H-pyrazol-4-yl)-4-(6-(4-((6-methoxypyridin-3-yl)methyl)piperazin-1-yl)pyridin-3-yl)pyrazolo[1,5-a]pyridine-3-carbonitrile]
[1]; [3]
  IC50: 16.1 nM

## COc1cc(C)c(CN2CCN(c3ccc(-c4cc(-c5cnn(C)c5)cn5ncc(C#N)c45)cn3)CC2)cn1 [Example 672, 4-(6-(4-((6-methoxy-4-methylpyridin-3-yl)methyl)piperazin-1-yl)pyridin-3-yl)-6-(1-methyl-1H-pyrazol-4-yl)pyrazolo[1,5-a]pyridine-3-carbonitrile]
[1]; [3]
  IC50: 17.3 nM
[2]; wild type RET, 1 mM ATP
  IC50: 19.3 nM

## COc1ccc(CN2CCN(c3ccc(-c4cc(-c5cnn(CC(C)CO)c5)cn5ncc(C#N)c45)cn3)CC2)cn1 (stereo in doubt) [Example 708, (S)-6-(1-(3-hydroxy-2-methylpropyl)-1H-pyrazol-4-yl)-4-(6-(4-((6-methoxypyridin-3-yl)methyl)piperazin-1-yl)pyridin-3-yl)pyrazolo[1,5-a]pyridine-3-carbonitrile]
[1]; [3]
  IC50: 7 nM
[2]; wild type RET, 1 mM ATP
  IC50: 19.4 nM

## CN(C)C(=O)C1CCN(c2ccc(-c3cc(-c4cnn(C)c4)cn4ncc(C#N)c34)cn2)CC1 [Example 562, 1-(5-(3-cyano-6-(1-methyl-1H-pyrazol-4-yl)pyrazolo[1,5-a]pyridine-4-yl)pyridine-2-yl)-N,N-dimethylpiperidine-4-carboxamide 2,2,2-trifluoroacetate]
[1]; [3]
  IC50: 58.6 nM
[2]
  IC50: 56 nM

## CC(C)(C)OC(=O)N1CCN(c2ccc(-c3cc(-c4cnn(C(F)F)c4)cn4ncc(C#N)c34)cn2)CC1 [Example 265, tert-Butyl 4-(5-(3-cyano-6-(1-(difluoromethyl)-1H-pyrazol-4-yl)pyrazolo[1,5-a]pyridin-4-yl)pyridin-2-yl)piperazine-1-carboxylate]
[1]; [4]
  IC50: 289 nM
[2]; wild type RET, 1 mM ATP
  IC50: 153 nM

## COc1ccc(CN2CCN(c3ncc(-c4cc(-c5cnn(C)c5)cn5ncc(C#N)c45)cc3F)CC2)cn1 [Example 736, 4-(5-fluoro-6-(4-((6-methoxypyridin-3-yl)methyl)piperazin-1-yl)pyridin-3-yl)-6-(1-methyl-1H-pyrazol-4-yl)pyrazolo[1,5-a]pyridine-3-carbonitrile]
[1]
  IC50: 67.4 nM
[2]; wild type RET, 1 mM ATP
  IC50: 35.1 nM

## CC(C)NC(=O)[C@H]1CCCN(c2ccc(-c3cc(-c4cnn(C)c4)cn4ncc(C#N)c34)cn2)C1 [Example 230, (S)-1-(5-(3-cyano-6-(1-methyl-1H-pyrazol-4-yl)pyrazolo[1,5-a]pyridin-4-yl)pyridin-2-yl)-N-isopropylpiperidine-3-carboxamide]
[2]; wild type RET, 1 mM ATP
  IC50: 242 nM

## Cn1cc(-c2cc(-c3ccc(N4CCN(Cc5ccccc5)CC4)nc3)c3c(Cl)cnn3c2)cn1 [Example 647, 4-(6-(4-benzylpiperazin-1-yl)pyridine-3-yl)-3-chloro-6-(1-methyl-1H-pyrazol-4-yl)pyrazolo[1,5-a]pyridine]
[1]; [3]
  IC50: 63 nM
[2]; wild type RET, 1 mM ATP
  IC50: 34.4 nM

## Cn1cc(-c2cc(-c3ccc(N4CCN(C(=O)OC(C)(C)C)CC4)nc3)c3c(C#N)cnn3c2)cn1 [Example 1, tert-butyl 4-(5-(3-cyano-6-(1-methyl-1H-pyrazol-4-yl)pyrazolo[1,5-a]pyridin-4-yl)pyridin-2-yl)piperazine-1-carboxylate]
[1]; [4]
  IC50: 47.5 nM
[2]; wild type RET, 1 mM ATP
  IC50: 35.8 nM

## COc1ccc(CN2CCN(c3ccc(-c4cc(-c5cnn(C)c5)cn5ncc(C)c45)cn3)CC2)cn1 [Example 744, 4-(6-(4-((6-methoxypyridin-3-yl)methyl)piperazin-1-yl)pyridin-3-yl)-3-methyl-6-(1-methyl-1H-pyrazol-4-yl)pyrazolo[1,5-a]pyridine]
[1]
  IC50: 66.3 nM
[2]; wild type RET, 1 mM ATP
  IC50: 46.2 nM

## COc1ccc(CN2CCN(c3ccc(-c4cc(-c5cnn(CC(C)(C)O)c5)cn5ncc(C#N)c45)cn3)CC2)cn1 [Example 702, 6-(1-(2-hydroxy-2-methylpropyl)-1H-pyrazol-4-yl)-4-(6-(4-((6-methoxypyridin-3-yl)methyl)piperazin-1-yl)pyridin-3-yl)pyrazolo[1,5-a]pyridine-3-carbonitrile]
[1]; [3]
  IC50: 5.6 nM
[2]; wild type RET, 1 mM ATP
  IC50: 15.3 nM

## Cc1cnn2cc(-c3cnn(C)c3)cc(-c3ccc(N4CCN(C(=O)OC(C)(C)C)CC4)nc3)c12 [Example 650, tert-butyl 4-(5-(3-methyl-6-(1-methyl-1H-pyrazol-4-yl)pyrazolo[1,5-a]pyridin-4-yl)pyridin-2-yl)piperazine-1-carboxylate]
[2]; wild type RET, 1 mM ATP
  IC50: 345 nM

## Cn1cc(-c2cc(-c3ccc(N4CCN(C(=O)OC(C)(C)C)CC4)nc3)c3c(Br)cnn3c2)cn1 [Example 649, tert-butyl 4-(5-(3-bromo-6-(1-methyl-1H-pyrazol-4-yl)pyrazolo[1,5-a]pyridin-4-yl)pyridin-2-yl)piperazine-1-carboxylate]
[2]; wild type RET, 1 mM ATP
  IC50: 656 nM

## Cc1cc(-c2cc(-c3cnn(C)c3)cn3ncc(C#N)c23)cnc1N1CCN(C(=O)CC(C)(C)O)CC1 [Example 277, 4-(6-(4-(3-hydroxy-3-methylbutanoyl)piperazin-1-yl)-5-methylpyridin-3-yl)-6-(1-methyl-1H-pyrazol-4-yl)pyrazolo[1,5-a]pyridine-3-carbonitrile]
[2]; wild type RET, 1 mM ATP
  IC50: 300 nM

## Cc1cc(-c2cc(-c3cnn(C)c3)cn3ncc(C#N)c23)cnc1N1CCN(C(=O)OC(C)(C)C)CC1 [Example 275, tert-Butyl 4-(5-(3-cyano-6-(1-methyl-1H-pyrazol-4-yl)pyrazolo[1,5-a]pyridin-4-yl)-3-methylpyridin-2-yl)piperazine-1-carboxylate]
[2]; wild type RET, 1 mM ATP
  IC50: 1500 nM

## Cn1cc(-c2cc(-c3ccc(N4CCNCC4)nc3)c3ccnn3c2)cn1 [Example 312, 6-(1-methyl-1H-pyrazol-4-yl)-4-(6-(piperazin-1-yl)pyridin-3-yl)pyrazolo[1,5-a]pyridine dihydrochloride]
[2]
  IC50: 607 nM
